From patent US20230145835A1, “Modulators of Alpha-4-beta-7 Integrin and MAdCAM” (48HD Biopharma Inc., priority 2021, published 2023) come the findings set out here.

pIC50: −log10 of the molar value. Numbered stars: 1 amine (or outer) side, 2 acyl side, 3 side chain; on linkers, the order of the positions; unused ones are H or OH. Bridge positions count the residues as written; N and C are the ends. Square brackets hold non-standard residues; d marks the D form. Peptide text beside a SMILES is read from it. X3 = O=C(/C=N/OCCCCCCOc1cc(C[*:2])cc(C[*:3])c1)[*:1]; X1 = O=C(C=NOCCCCCCOc1cc(C[*:2])cc(C[*:3])c1)[*:1]; X5 = O=C(CCCCCCOc1cc(C[*:2])cc(C[*:3])c1)[*:1]; tBuAla = CC(C)(C)C[C@H](N)C(=O)O; aThr = C[C@H](O)[C@H](N)C(=O)O; Cba = N[C@@H](CC1CCC1)C(=O)O; hSer = N[C@@H](CCO)C(=O)O; Nle = CCCC[C@H](N)C(=O)O

The first assay addresses T1, rh-integrin α4β7/LPAM-1 (Homo sapiens, UniProt P13612+P26010).
T1 sequence (P13612 34-977 limits assumed): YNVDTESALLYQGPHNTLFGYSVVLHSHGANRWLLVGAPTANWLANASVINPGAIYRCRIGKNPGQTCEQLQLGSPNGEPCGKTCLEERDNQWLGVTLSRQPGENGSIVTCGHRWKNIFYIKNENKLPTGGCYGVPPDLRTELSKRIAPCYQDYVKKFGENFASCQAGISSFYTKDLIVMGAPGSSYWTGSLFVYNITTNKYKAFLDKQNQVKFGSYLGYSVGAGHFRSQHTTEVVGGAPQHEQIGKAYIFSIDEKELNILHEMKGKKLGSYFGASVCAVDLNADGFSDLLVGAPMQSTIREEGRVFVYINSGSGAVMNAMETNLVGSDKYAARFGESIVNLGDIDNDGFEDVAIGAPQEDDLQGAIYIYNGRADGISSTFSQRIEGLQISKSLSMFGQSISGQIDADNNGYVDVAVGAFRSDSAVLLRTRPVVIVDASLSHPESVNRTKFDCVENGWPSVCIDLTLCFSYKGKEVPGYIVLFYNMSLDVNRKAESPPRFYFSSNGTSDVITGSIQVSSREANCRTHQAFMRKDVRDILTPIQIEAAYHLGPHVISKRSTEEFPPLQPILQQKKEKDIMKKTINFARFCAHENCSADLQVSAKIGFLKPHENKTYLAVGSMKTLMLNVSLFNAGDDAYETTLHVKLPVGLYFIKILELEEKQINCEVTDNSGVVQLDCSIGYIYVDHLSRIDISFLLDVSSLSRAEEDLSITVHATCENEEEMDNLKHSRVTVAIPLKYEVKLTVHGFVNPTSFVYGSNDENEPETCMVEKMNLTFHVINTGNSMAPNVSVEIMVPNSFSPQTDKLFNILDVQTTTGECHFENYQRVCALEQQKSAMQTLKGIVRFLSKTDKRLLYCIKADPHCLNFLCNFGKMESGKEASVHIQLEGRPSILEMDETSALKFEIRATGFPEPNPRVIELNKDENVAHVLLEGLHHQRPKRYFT
T1 sequence (P26010 20-723 limits assumed): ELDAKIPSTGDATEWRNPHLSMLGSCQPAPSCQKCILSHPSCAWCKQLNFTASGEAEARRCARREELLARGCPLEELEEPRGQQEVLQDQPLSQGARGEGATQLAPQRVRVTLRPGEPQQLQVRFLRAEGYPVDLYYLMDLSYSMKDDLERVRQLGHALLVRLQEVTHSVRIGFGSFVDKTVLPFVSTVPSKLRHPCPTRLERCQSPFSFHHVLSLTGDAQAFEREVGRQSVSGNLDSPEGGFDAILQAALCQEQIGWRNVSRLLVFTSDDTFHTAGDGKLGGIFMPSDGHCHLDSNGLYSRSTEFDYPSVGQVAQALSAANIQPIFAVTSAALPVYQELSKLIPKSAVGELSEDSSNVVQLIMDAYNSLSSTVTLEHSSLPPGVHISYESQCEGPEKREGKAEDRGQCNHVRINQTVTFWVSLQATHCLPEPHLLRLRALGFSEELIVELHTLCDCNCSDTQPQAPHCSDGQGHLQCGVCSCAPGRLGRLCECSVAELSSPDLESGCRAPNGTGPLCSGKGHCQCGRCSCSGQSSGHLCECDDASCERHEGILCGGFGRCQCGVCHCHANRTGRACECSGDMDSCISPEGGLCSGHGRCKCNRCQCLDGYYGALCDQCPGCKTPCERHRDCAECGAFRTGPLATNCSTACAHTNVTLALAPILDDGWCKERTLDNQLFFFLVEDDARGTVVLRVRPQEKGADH
Description: α4β7-MadCAM Competition ELISA (Example 4). In kind it is binding. Particulars: Table 3 Representative compounds; inhibition of MAdCAM binding to coated α4β7; read-out: IC50. The procedure: After washing with wash buffer, 200 μL assay buffer was added to each well and incubated for one hour at 28° C. After another wash with wash buffer, 100 μL of a MAdCAM and peptide mixture in assay buffer was added to each well and incubated for one hour at 28° C., followed by washing with wash buffer.
Background: An ELISA detects its analyte on a solid surface through an enzyme-linked reagent.
As a reminder, the pIC50 is −log10 of the IC50, conventionally taken in molar units. `CCCC[C@@H]1NC(=O)[C@H](CO)NC(=O)[C@@H]2CSSC[C@@H](C(=O)N[C@@H](Cc3c[nH]c4ccccc34)C(=O)N[C@@H](CCC(N)=O)C(N)=O)NC(=O)[C@H](CC(C)C)NC(=O)[C@@H](CC(=O)O)NC(=O)[C@H](CCCC)NC(=O)[C@H](CO)NC(=O)[C@H](CCCNC(=N)N)NC(=O)[C@H](CSCC(=O)N[C@@H](CCCNC(=N)N)C(=O)N2)NC(=O)[C@H](CC(C)C)NC(=O)[C@H](CC(=O)O)NC1=O` [compound 103, Disulfide- RCS{Nle}DICRS NleDICWQ] ({CH2CO}-RCS[Nle]DLCRS[Nle][dD]LCWQ-NH2; disulfide 2-13; thioether N-7): the pIC50 is 3.58.
Same read-out and setting: the result for `CC[C@H](C)[C@@H]1NC(=O)[C@H](CC(=O)O)NC(=O)[C@H](CCSC)NC(=O)[C@@H]2CCCN2C(=O)[C@@H]2CSCc3cc(cc(c3)OCCCCCCO/N=C/C(=O)N[C@@H](CCCCN)C(=O)N2)CSC[C@@H](C(N)=O)NC(=O)[C@H]([C@@H](C)O)NC(=O)[C@@H]2CCCN2C1=O` [compound 18] (KCPMDIPTC-NH2; linker N-2-9 via X3) reads 6.46; that for `CC(C)(C)C[C@@H]1NC(=O)[C@H](CC(=O)O)NC(=O)[C@H](CC2CCC2)NC(=O)[C@@H]2CCCN2C(=O)[C@@H]2CSCc3cc(cc(c3)OCCCCCCO/N=C/C(=O)N[C@@H](CCCNC(=N)N)C(=O)N2)CSC[C@@H](C(N)=O)NC(=O)[C@H](CCC(=O)O)NC(=O)[C@H](CCC(N)=O)NC(=O)[C@H](Cc2c[nH]c3ccccc23)NC1=O` [compound 56, TSL6-SRCP{CbA}D {tBuAla}WQEC] (RCP[Cba]D[tBuAla]WQEC-NH2; linker N-2-10 via X3), 5.41; that for `CC[C@H](C)[C@@H]1NC(=O)[C@H](CC(=O)O)NC(=O)[C@H](CCOC)NC(=O)[C@@H]2CCCN2C(=O)[C@@H]2CSCc3cc(cc(c3)OCCCCCCO/N=C/C(=O)N[C@@H](CCCNC(=N)N)C(=O)N2)CSC[C@@H](C(N)=O)NC(=O)[C@H](CCC(=O)O)NC(=O)[C@H](CCC(N)=O)NC(=O)[C@H](Cc2c[nH]c3ccccc23)NC1=O` [compound 14] (RCP[hSer](Me)DIWQEC-NH2; linker N-2-10 via X3), 6.59.
Turning to `CC[C@H](C)[C@@H]1NC(=O)[C@H](CC(=O)O)NC(=O)[C@H](CCSC)NC(=O)[C@@H]2CCCN2C(=O)[C@@H](NC(=O)[C@H](CCC(N)=O)NC(=O)[C@H](CO)NC(C)=O)CSSC[C@@H](C(N)=O)NC(=O)[C@H]([C@@H](C)O)NC(=O)[C@@H]2CCCN2C1=O` [compound 47] (Ac-SQCPMDIPTC-NH2; disulfide 3-10), the pIC50 is 5.77.
For the compound `CSCC[C@@H]1NC(=O)[C@H](CCCNC(=N)N)NC(=O)[C@@H]2CSCc3cc(cc(c3)OCCCCCCO/N=C/C(=O)N[C@@H]([C@H](C)O)C(=O)N2)CSC[C@@H](C(N)=O)NC(=O)[C@H](CC(=O)O)NC(=O)[C@H](CCC(N)=O)NC(=O)[C@H](Cc2ccccc2)NC(=O)[C@H](CC(=O)O)NC1=O` [compound 106, TSL6- STCRMDFQDC] ([aThr]CRMDFQDC-NH2; linker N-2-9 via X3), the pIC50 was 3.30.
Still for that read-out and setting: to `CC(C)[C@@H]1NC(=O)[C@H](CCCCN)NC(=O)[C@@H]2CCCN2C(=O)[C@@H]2CCCN2C(=O)[C@H](CC(=O)O)NC(=O)[C@H](Cc2cnc[nH]2)NC(=O)[C@@H]2CSCc3cc(cc(c3)OCCCCCCO/N=C/C(=O)N[C@@H](CO)C(=O)N2)CSC[C@@H](C(N)=O)NC1=O` [compound 77, TSL6- SKCPADVPSC] (SCHDPPKVC-NH2; linker N-2-9 via X3) belongs 4.39; to `CC(C)C[C@@H]1NC(=O)/C=N/OCCCCCCOc2cc3cc(c2)CSC[C@H](NC1=O)C(=O)N[C@@H](Cc1ccc(O)cc1)C(=O)N[C@@H](CCC(=O)O)C(=O)N[C@@H](Cc1c[nH]c2ccccc12)C(=O)N[C@H](CCC(=O)O)C(=O)N[C@@H](Cc1cnc[nH]1)C(=O)N[C@@H](C)C(=O)N[C@H](C(N)=O)CSC3` [compound 63, TSL6- SLCYEWEHAC] (LCYEW[dE]HAC-NH2; linker N-2-9 via X3), 5.10.
The same measure, in the same setting: the result for `CCCC[C@@H]1NC(=O)[C@@H]2CCCN2C(=O)[C@@H]2CSCc3cc(cc(c3)OCCCCCCC(=O)NCC(=O)N[C@@H](CCCCN)C(=O)N2)CSC[C@@H](C(N)=O)NC(=O)[C@H](CCCCN)NC(=O)[C@H](C(C)C)NC(=O)[C@H](Cc2c[nH]c3ccccc23)NC(=O)[C@H]([C@@H](C)CC)NC(=O)[C@H](CC(=O)O)NC1=O` (stereo in doubt) [compound 21, TSLC7- GKCP{Nle} DIWVKC] reads 6.35; that for `C[C@@H]1NC(=O)/C=N/OCCCCCCOc2cc3cc(c2)CSC[C@H](NC1=O)C(=O)N[C@@H](Cc1ccc(O)cc1)C(=O)N1CCC[C@H]1C(=O)N[C@@H](CC(=O)O)C(=O)N[C@@H]([C@@H](C)O)C(=O)N[C@@H](Cc1ccc(O)cc1)C(=O)N[C@@H](Cc1cnc[nH]1)C(=O)N[C@H](C(N)=O)CSC3` [compound 93, TSL6- SACYPDTYHC] (ACYPDTYHC-NH2; linker N-2-9 via X3), 3.95.
`CC[C@H](C)[C@@H]1NC(=O)[C@H](CC(=O)O)NC(=O)[C@H](CC(C)C)NC(=O)[C@@H]2CCCN2C(=O)[C@@H]2CSCc3cc(cc(c3)OCCCCCCO/N=C/C(=O)N[C@@H](CCCCN)C(=O)N2)CSC[C@@H](C(N)=O)NC(=O)[C@H](CCC(=O)O)NC(=O)[C@H](Cc2ccc(O)cc2)NC(=O)[C@@H]2CCCN2C1=O` [compound 11] (KCPLDIPYEC-NH2; linker N-2-10 via X3): the pIC50 was 6.70.

Staying with this assay, now noted: competition ELISA, 4 μg/mL α4β7 coated, MAdCAM and peptide mixture, 28° C.; read-out: IC50.
As for `C[C@@H](O)[C@@H]1NC(=O)[C@H](CC(=O)O)NC(=O)[C@@H]2CCCN2C(=O)[C@H](Cc2ccc(O)cc2)NC(=O)[C@@H]2CSCc3cc(cc(c3)OCCCCCCON=CC(=O)N[C@@H](CC(N)=O)C(=O)N2)CSC[C@@H](C(=O)O)NC(=O)[C@H](Cc2c[nH]cn2)NC(=O)[C@H](Cc2ccc(O)cc2)NC1=O` [SEQ ID NO: 86] (NCYPDTYHC-OH; linker N-2-9 via X1), the pIC50 was 4.10.
Turning to `CCCC[C@@H]1NC(=O)[C@@H]2CCCN2C(=O)[C@@H]2CSCc3cc(cc(c3)OCCCCCCC(=O)NCC(=O)N[C@@H](CCCNC(=N)N)C(=O)N2)CSC[C@@H](C(=O)O)NC(=O)[C@H](CCC(=O)O)NC(=O)[C@H](CCC(N)=O)NC(=O)[C@H](Cc2c[nH]c3ccccc23)NC(=O)[C@H]([C@@H](C)CC)NC(=O)[C@H](CC(=O)O)NC1=O` [SEQ ID NO: 147] (GRCP[Nle]DIWQEC-OH; linker N-3-11 via X5; C-terminus assumed), the pIC50 is 7.12.
On the same count and under the same terms, to `CCCC[C@@H]1NC(=O)[C@@H]2CCCN2C(=O)[C@@H]2CSCc3cc(cc(c3)OCCCCCCC(=O)NCC(=O)N[C@@H](C)C(=O)N2)CSC[C@@H](C(=O)O)NC(=O)[C@H](CCC(=O)O)NC(=O)[C@H](CCC(N)=O)NC(=O)[C@H](Cc2c[nH]c3ccccc23)NC(=O)[C@H](C(C)C)NC(=O)[C@H](CC(=O)O)NC1=O` [SEQ ID NO: 122] (GACP[Nle]DVWQEC-OH; linker N-3-11 via X5; C-terminus assumed) belongs 6.13.
The same measure, in the same setting: to `CSCC[C@@H]1NC(=O)[C@H]([C@@H](C)O)NC(=O)[C@H](C)NC(=O)CNC(=O)[C@@H]2CSCc3cc(cc(c3)OCCCCCCON=CC(=O)N[C@@H](Cc3ccccc3)C(=O)N2)CSC[C@@H](C(=O)O)NC(=O)[C@H](CCCCN)NC(=O)[C@H](CCCCN)NC1=O` [SEQ ID NO: 79] (FCGATMKKC-OH; linker N-2-9 via X1) belongs 3.79.
